Data taken from ChEMBL document CHEMBL1133399, “2-(Alkylthio)pyrimidin-4-ones as novel, reversible inhibitors of lipoprotein-associated phospholipase A2” (Bioorg Med Chem Lett, 2000).

biological target: T1, Platelet-activating factor acetylhydrolase (Homo sapiens) (UniProt Q13093); experiment: The compound was tested for inhibition of Lipoprotein-associated phospholipase A2 (Lp-PLA2) at 30 uM
T1 sequence (whole entry): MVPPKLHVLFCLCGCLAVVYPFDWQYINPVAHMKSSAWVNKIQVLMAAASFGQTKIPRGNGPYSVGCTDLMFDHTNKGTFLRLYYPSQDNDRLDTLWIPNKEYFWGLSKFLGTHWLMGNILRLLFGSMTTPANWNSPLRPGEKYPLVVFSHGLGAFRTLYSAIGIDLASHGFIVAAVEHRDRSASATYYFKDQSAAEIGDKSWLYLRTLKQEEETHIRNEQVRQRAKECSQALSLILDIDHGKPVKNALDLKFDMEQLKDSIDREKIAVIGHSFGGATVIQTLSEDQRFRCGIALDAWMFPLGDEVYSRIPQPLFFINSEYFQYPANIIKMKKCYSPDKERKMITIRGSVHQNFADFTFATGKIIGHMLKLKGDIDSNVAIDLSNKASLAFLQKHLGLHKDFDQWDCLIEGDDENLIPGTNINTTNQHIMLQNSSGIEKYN

For Cc1ccc(Cc2cnc(SCCCc3ccccc3)nc2O)cn1, the inhibition was 10%.

biological target: T2, Platelet-activating factor acetylhydrolase (Homo sapiens, UniProt Q13093); experiment: The compound was tested for inhibition of Lipoprotein-associated phospholipase A2 (Lp-PLA2)
T2 sequence (Q13093 whole entry): T1 sequence (whole entry)

Cn1ccc(Cc2cnc(SCCCCCCCC(=O)c3ccc(Cl)cc3)[nH]c2=O)cc1=O was tested, and the Ki was 41 nM.

biological target: T1, Platelet-activating factor acetylhydrolase (Homo sapiens); experiment: The compound was tested for inhibition of Lipoprotein-associated phospholipase A2 (Lp-PLA2) at 10 uM

Compared with O=C(CSc1ncc(Cc2cccnc2)c(O)n1)c1ccccc1, O=C(NCCCCCCSc1ncc(Cc2cccnc2)c(O)n1)c1ccc(Cl)cc1 is higher in inhibition: 0% for the first, 41% for the second.

Going from Oc1nc(SCCCCCCCCc2ccccc2)ncc1Cc1ccccc1 to Oc1nc(SCCCCCCCCc2ccccc2)ncc1Cc1ccccn1, the inhibition rises from 0% to 38%.

Going from Cc1nc(SCCCCCCCC(=O)c2ccc(Cl)cc2)nc(O)c1Cc1cccnc1 to Oc1nc(SCCCCCCCCc2ccccc2)ncc1Cc1ccoc1, the inhibition rises from 40% to 63%.

biological target: T2, Platelet-activating factor acetylhydrolase; experiment: Inhibition of lipoprotein-associated phospholipase A2 (Lp-PLA2)

First: O=c1[nH]c(SCCCCCCCCc2ccccc2)ncc1Cc1ccncc1
Second: O=c1[nH]c(SCCCCCCc2ccccc2)ncc1Cc1cccnc1
The IC50 of the first is 3.7-fold lower: 630 nM for the first, 2300 nM for the second.

Going from O=c1[nH]c(SCc2ccccc2)ncc1Cc1ccncc1 to O=c1[nH]c(SCc2ccccc2)ncc1Cc1cccnc1, the IC50 falls from 4400 nM to 1100 nM (4-fold). The second is the more potent here.

Going from Oc1nc(SCCCCCCCCc2ccc(Cl)cc2)ncc1Cc1cccnc1 to CC(=O)c1ccc(CCCCCCCCSc2ncc(Cc3cccnc3)c(O)n2)cc1, the IC50 rises from 200 nM to 2900 nM (14-fold). The first is the more potent here.

Going from O=C(CCCCCCCOc1ncc(Cc2cccnc2)c(=O)[nH]1)c1ccc(Cl)cc1 to O=C(CCCCCCCCSc1ncc(Cc2cccnc2)c(=O)[nH]1)c1ccc(Cl)cc1, the IC50 rises from 64 nM to 650 nM (10-fold).

First: O=C(CCCCCCCSc1ncc(Cc2cccnc2)c(O)n1)c1cccs1
Second: O=C(CCCCCCCSc1ncc(Cc2cccnc2)c(O)n1)c1ccc(Cl)cc1
The IC50 of the first is 12-fold higher: 1300 nM for the first, 110 nM for the second. The second is the more potent here.

Oc1nc(SCCCCCCCSc2ccc(Cl)cc2)ncc1Cc1cccnc1 and Oc1nc(SCCCCCCCOc2ccc(Cl)cc2)ncc1Cc1cccnc1 are within 1.5-fold of each other in IC50: 250 nM for the first, 230 nM for the second.

Compared with Cc1ccc(Cc2cnc(OCCCCc3ccccc3)nc2O)cn1, Cc1ccc(Cc2cnc(SCCCCCCCc3ccccc3)nc2O)cn1 is 12-fold lower in IC50: 12000 nM for the first, 1000 nM for the second.

Oc1nc(SCc2ccccc2)ncc1Cc1cncnc1 and Oc1nc(SCc2ccc(F)cc2)ncc1Cc1cncnc1 are within 1.5-fold of each other in IC50: 1100 nM for the first, 850 nM for the second.

Going from O=C(CCCCCCCSc1ncc(Cc2cncnc2)c(O)n1)c1ccc(Cl)cc1 to O=S(=O)(CCCCCCCSc1ncc(Cc2cccnc2)c(O)n1)c1ccc(Cl)cc1, the IC50 rises from 54 nM to 12600 nM (230-fold). The first is the more potent here.

First: Cc1ccc(Cc2cnc(SCCCCCCCCCc3ccccc3)nc2O)cn1
Second: Oc1nc(SCCCCCCCCCc2ccccc2)ncc1Cc1cccnc1
The IC50 of the first is 2.3-fold higher: 990 nM for the first, 430 nM for the second. The second is the more potent here.

Compared with O=c1[nH]c(SCc2ccc(Cl)cc2)ncc1Cc1cccnc1, O=c1[nH]c(SCCCCCCCCc2cccc(Cl)c2)ncc1Cc1cccnc1 is 5.2-fold lower in IC50: 4400 nM for the first, 850 nM for the second. The second is the more potent here.

COc1cc(Cc2cnc(SCCCCCCCCc3ccccc3)nc2O)ccn1 and CCCCn1ccc(Cc2cnc(SCCCCCCCCc3ccccc3)nc2O)cc1=O are within 1.5-fold of each other in IC50: 1000 nM for the first, 780 nM for the second.

COc1ccc(CCCCCCCCSc2ncc(Cc3ccc(C)nc3)c(O)n2)cc1 and Cc1ccc(Cc2cnc(SCCCCCCOCc3ccc(Cl)cc3)[nH]c2=O)cn1 are within 1.5-fold of each other in IC50: 1100 nM for the first, 1200 nM for the second.

Going from O=C(CCCCCCCSc1ncc(Cc2cnccn2)c(=O)[nH]1)c1ccc(Cl)cc1 to Cn1ccc(Cc2cnc(SCCCCCCCC(=O)c3ccc(Cl)cc3)[nH]c2=O)cc1=O, the IC50 falls from 640 nM to 72 nM (8.9-fold).

[O-][S+](CCCCCCCSc1ncc(Cc2cccnc2)c(O)n1)c1ccc(Cl)cc1 (configuration not stated) gave an IC50 of 17000 nM.
